Data: paper PMC9138505, “Small Molecule 20S Proteasome Enhancer Regulates MYC Protein Stability and Exhibits Antitumor Activity in Multiple Myeloma” (Biomedicines, 2022)
Where “and” joins values, the source holds several entries; their conditions need not be identical. Identical values can stand only once.

System: RPMI-8226 cells
Assay: Gene expression profiling, NanoString nCounter PanCancer Pathways Panel, ROSALIND analysis
Format: cell-based, human
Details: RPMI-8226, TCH-165 samples 1-3
Description: RPMI-8226 cells were treated with vehicle or TCH-165 (10 μM) for 4 h. Total RNA was obtained using the mirVana miRNA Isolation Kit, with phenol (Thermofisher Scientific; AM1560; Waltham, MA, USA). Total RNA was quantified by Qubit (Thermofisher Scientific; Q32855; Waltham, MA, USA). and gene expression was evaluated against the nCounter® PanCancer Pathways Panel^TM according to the standard NanoString protocol.
Data were analyzed by ROSALIND® [36] with a hyperscale architecture developed by ROSALIND, Inc. (San Diego, CA, USA). Normalization, fold changes and p-values were calculated using criteria provided by NanoString. ROSALIND follows the nCounter® Advanced Analysis protocol of dividing counts within a lane by the geometric mean of the normalizer probes from the same lane. Housekeeping probes to be used for normalization are selected based on the geNorm algorithm, as implemented in the NormqPCR R library. Fold changes and p-values are calculated using the fast method as described in the nCounter Advanced Analysis 2.0 User Manual. The p-value adjustment is performed using the Benjamini–Hochberg method of estimating false discovery rates (FDR). Clustering of genes for the final heatmap of differentially expressed genes was done using the PAM (Partitioning Around Medoids) method using the fpc R library. Hypergeometric distribution was used to analyze the enrichment of pathways, gene ontology, domain structure and other ontologies. The topGO R library was used to determine local similarities and dependencies between GO terms in order to perform Elim pruning correction. Several database sources were referenced for enrichment analysis, including Interpro [40], NCBI [41], MSigDB [42, 43], REACTOME [44], WikiPathways. Enrichment was calculated relative to a set of background genes relevant to the experiment.

## CCOC(=O)[C@]1(c2ccccc2)N=C(c2ccc(OC)cc2)N(Cc2ccccc2)[C@@H]1c1ccc(NCc2ccccc2)cc1 [TCH-165]
  CDKN2A normalized gene expression: 7.059 and 6.817 and 7.045
  CDKN2B normalized gene expression: 5.827 and 5.402 and 5.787
  CDKN2C normalized gene expression: 2.401 and 2.3768 and 2.653
  CDKN2D normalized gene expression: 6.667 and 6.808 and 7.091
  CEBPA normalized gene expression: 4.308 and 4.029 and 4.291
  CEBPE normalized gene expression: 3.723 and 3.739 and 3.291
  CHAD normalized gene expression: 4.986 and 5.093 and 4.805
  CHEK1 normalized gene expression: 9.816 and 9.813 (2×)
  CHEK2 normalized gene expression: 8.6438 and 8.491 and 8.618
  CHUK normalized gene expression: 8.745 and 8.67 and 8.685
  CIC normalized gene expression: 6.793 and 6.427 and 6.731
  CLCF1 normalized gene expression: 3.723 and 4.2133 and 3.184
  CNTFR normalized gene expression: 4.723 and 5.093 and 4.653
  COL1A1 normalized gene expression: 4.649 and 4.524 and 3.943
  COL1A2 normalized gene expression: 3.401 and 3.154 and 4.0068
  COL2A1 normalized gene expression: 6.015 and 6.817 and 6.494
  COL3A1 normalized gene expression: 4.86 and 4.093 and 4.731
  COL4A3 normalized gene expression: 6.182 and 5.798 and 6.156
  COL4A4 normalized gene expression: 3.208 and 3.739 and 4.613
  COL4A5 normalized gene expression: 4.571 and 3.962 and 3.876
  COL4A6 normalized gene expression: 3.208 and 3.476 and 3.0682
  COL5A1 normalized gene expression: 6.156 and 5.3768 and 5.823
  COL5A2 normalized gene expression: 4.649 and 4.524 and 4.184
  COL11A1 normalized gene expression: 4.793 and 4.029 and 4.184
  COL11A2 normalized gene expression: 3.571 and 3.029 and 2.483
  COMP normalized gene expression: 3.571 and 4.093 and 4.0682
  CREB5 normalized gene expression: 6.467 and 6.324 and 6.437
  CREBBP normalized gene expression: 5.488 and 4.855 and 5.156
  CSF1R normalized gene expression: 3.401 and 3.739 and 3.653
  CSF2 normalized gene expression: 3.86 and 4.029 and 3.291
  CSF3R normalized gene expression: 4.571 and 3.962 and 4.39
  CSF3 normalized gene expression: 4.208 and 3.739 and 3.805
  CTNNB1 normalized gene expression: 11.1942 and 11.0314 and 10.9756
  CUL1 normalized gene expression: 11.4237 and 11.3932 and 11.3628
  CXCL8 normalized gene expression: 7.908 and 8.053 and 8.0531
  CYLD normalized gene expression: 9.829 and 9.692 and 9.711
  DAXX normalized gene expression: 9.74 and 9.747 and 9.706
  DDB2 normalized gene expression: 8.97 and 9.039 and 9.005
  DDIT3 normalized gene expression: 11.9124 and 11.8557 and 11.855
  DDIT4 normalized gene expression: 9.959 and 9.961 and 9.982
  DKK1 normalized gene expression: 5.259 and 4.699 and 4.769
  DKK2 normalized gene expression: 5.488 and 4.657 and 4.805
  DKK4 normalized gene expression: 4.986 and 4.855 and 4.975
  DLL1 normalized gene expression: 4.308 and 4.029 and 3.5707
  DLL3 normalized gene expression: 5.101 and 4.427 and 4.5707
  DLL4 normalized gene expression: 5.401 and 4.817 and 5.211
  DNMT1 normalized gene expression: 10.7929 and 10.7224 and 10.7359
  DNMT3A normalized gene expression: 7.355 and 7.311 and 7.414
  DTX1 normalized gene expression: 5.156 and 5.402 and 5.592
  DTX4 normalized gene expression: 5.793 and 5.996 and 5.9095
  DUSP2 normalized gene expression: 6.378 and 6.364 and 6.623
  DUSP4 normalized gene expression: 7.667 and 7.581 and 7.494
  DUSP5 normalized gene expression: 10.8611 and 10.8321 and 10.8236
  DUSP6 normalized gene expression: 8.008 and 8.128 and 8.003
  DUSP8 normalized gene expression: 6.876 and 6.44 and 6.56
  DUSP10 normalized gene expression: 7.221 and 7.177 and 7.1906
  E2F1 normalized gene expression: 9.135 and 9.126 and 9.063
  E2F5 normalized gene expression: 9.349 and 9.291 and 9.221
  EFNA1 normalized gene expression: 6.283 and 5.2133 and 5.39
  EFNA2 normalized gene expression: 4.924 and 5.2133 and 5.0068
  EFNA3 normalized gene expression: 8.052 and 8.008 and 8.0531
  EFNA5 normalized gene expression: 5.649 and 4.739 and 4.943
  EGF normalized gene expression: 4.86 and 4.569 and 5.0682
  EGFR normalized gene expression: 5.892 and 5.524 and 5.461
  EIF4EBP1 normalized gene expression: 10.6929 and 10.6602 and 10.7353
  ENDOG normalized gene expression: 9.908 and 9.9873 and 9.891
  EP300 normalized gene expression: 9.491 and 9.463 and 9.424
  EPHA2 normalized gene expression: 3.208 and 2.891 and 1.805
  EPO normalized gene expression: 5.101 and 4.324 and 4.483
  EPOR normalized gene expression: 7.259 and 7.147 and 7.1271
  ERBB2 normalized gene expression: 6.044 and 5.427 and 5.291
  ERCC2 normalized gene expression: 6.924 and 6.657 and 6.5707
  ERCC6 normalized gene expression: 6.509 and 6.581 and 6.5707
  ETS2 normalized gene expression: 9.802 and 9.726 and 9.794
  ETV1 normalized gene expression: 9.48 and 9.485 and 9.458
  ETV4 normalized gene expression: 7.978 and 7.949 and 7.741
  ETV7 normalized gene expression: 4.723 and 4.962 and 4.528
  EYA1 normalized gene expression: 7.74 and 7.85 and 7.863
  EZH2 normalized gene expression: 10.3563 and 10.2507 and 10.2954
  FANCA normalized gene expression: 7.073 and 6.808 and 7.015
  FANCB normalized gene expression: 7.62 and 7.291 and 7.576
  FANCC normalized gene expression: 7.86 and 7.614 and 7.764
  FANCE normalized gene expression: 7.61 and 7.608 and 7.587
  FANCF normalized gene expression: 8.337 and 8.334 and 8.268
  FANCG normalized gene expression: 7.571 and 7.364 and 7.478
  FANCL normalized gene expression: 8.9359 and 8.968 and 8.918
  FAS normalized gene expression: 6.723 and 6.719 and 6.613
  FASLG normalized gene expression: 5.044 and 4.614 and 4.769
  FEN1 normalized gene expression: 11.0932 and 10.9634 and 10.9666
  FGF1 normalized gene expression: 4.723 and 4.524 and 5.098
